Patent publication US12171744B2, “Pharmaceutical combinations for the treatment of cancer” (Presage Biosciences, Inc., priority 2016, dated 2024)

Tests used:
HCC1187 cells = assay: PCR assay of XBP1 transcription; format: cell-based; details: Voruciclib 1.5 uM, Bortezomib 10 nM, 4 hours
Method: 1 ug of mRNA from each condition was used to generate cDNA using the High Capacity cDNA Reverse Transcription Kit (Applied Biosystems) and manufacturer's protocol. 100 ng cDNA was used to conduct a PCR assay to amplify XBP1 u or splice forms (Thermofisher PCR Supermix)—94 deg C. for 2 mins, (94 deg C. for 15 secs, 55 deg C. for 30 secs, 72 deg C. for 1 min)×30 cycles, 72 deg C. for 7 mins, hold at 4 deg C. XBP1 spiced and unspliced variants were detected.

SKM1 AML xenografts = assay: Xenograft tumor growth; format: in vivo, NOD SCID; details: Voruciclib 200 mpk PO, ABT 199 10 mpk PO, 6 on/1 off; by day 22
Method: (§5) Mice were enrolled for study when tumors reached an average volume of 150-200 mm^3. Tumor volume was calculated as V=length×width×height, all three dimensions measured using digital calipers along with body weight. Animals were removed from the study when—any one of the three measured dimensions of the tumor exceeding 2 cm, volume exceeding 2500 mm^3, ulceration or body weight loss greater than 20%.

[1] = system: DLBCL xenograft tumors (OCILY10); assay: MCL1 expression in xenograft tumors after oral dosing; format: in vivo, mice; details: 100 mpk, oral gavage daily for 5 days, 4 h post final dose
Method: Protein lysates were prepared by adding ice-cold 1×RIPA Buffer (from 10×, Millipore) with 1×-3× Halt protease and phosphatase inhibitor cocktail (100×, Pierce) to cell pellets, followed by pulse sonication (˜3-5 secs) three times. Lysates were cleared by centrifugation at 14K rpm for 15-20 mins and the supernatant (lysate) was collected for further analysis. To prepare lysates from cryopreserved xenograft tumor tissue, tissue was first homogenized using a hand-held tissue homogenizer (Cole Palmer) in above lysis buffer followed by pulse sonication and centrifugation as described above. Above steps were carried out under ice cold conditions. Protein samples were quantified using Bradford assay (Biorad) at 1:10 or higher dilutions using appropriate blank controls with 1×RIPA. 20-25 micrograms of protein from each sample were subject to SDS-PAGE using BOLT 4-12% Bis-Tris gels (Thermofisher) and transferred to either 0.45 or 0.2 micron pore size membranes (as applicable based on protein molecular size), and either nitrocellulose (NC) or pvdf (Thermofisher) using manufacturer's protocol, blocked for one hour in 5% milk at room temperature, probed with primary antibodies (Table 2) at 4 deg C. overnight and corresponding HRP-conjugated secondary antibodies (Jackson Immunoresearch, 1:10,000-1:20,000 dilutions) for 1 hour at room temperature. […]

[2] = system: HCC1187 triple negative breast cancer (TNBC) xenograft model; assay: CIVO microinjection, MCL-1 and CC3 staining; format: in vivo, mice; details: marker of apoptosis
Method: (§1) Mice were enrolled into CIVO drug studies when the tumor volume reached approximately 1000 mm^3. Microinjection studies were performed using the CIVO device as previously described (Klinghoffer et al, Science Translational Medicine 2015) The device was configured with 6 injection needles set for a 6 mm injection length and a total volume delivery of 3 μl. A fluorescent tracking marker (FTM) was added to each drug reservoir in vehicle for delivery along with each drug or drug combination. All micro-doses were equivalent to or lower than what would be allowed under FDA guidelines for Exploratory IND (Investigational New Drug) studies and by solubility of drug into vehicle. Total amounts of agents injected are tabulated below in Table 4.
A drug screen was performed to test multiple drugs simultaneously.
FIG. 11 depicts a similar experiment performed on the HCC1187 triple negative breast cancer (TNBC) xenograft model. […] Cells were then stained for CC3 expression (shown in red) as a marker of apoptosis.
FIGS. 20A-20D depicts the HCC1187 triple negative breast cancer (TNBC) xenograft model. Briefly, cells were treated with vehicle, voruciclib alone, ixazomib alone, or voruciclib and ixazomib in combination. Cells were then stained for CC3 expression (shown in red) as a marker of apoptosis.

CDK6 = target: T1, CDK6 (Homo sapiens, UniProt Q00534); assay: Kinase inhibition profiling (filter binding assay with γ-33P-ATP); format: biochemical
T1 construct: purchased Reaction Biology Corp. (testing facility)
Method: (§2) For each kinase, an IC50 value were calculated from a 10-point concentration curve of the test article and converted to Ki values.

CDK4 = target: T2, CDK4 (Homo sapiens, UniProt P11802); assay: as above; format: biochemical
T2 construct: purchased Reaction Biology Corp. (testing facility)
Method: as §2

CDK1 = target: T3, CDK1 (Homo sapiens, UniProt P06493); assay: as above; format: biochemical
T3 construct: purchased Reaction Biology Corp. (testing facility)
Method: as §2

[3] = Body weight in HCC1187 TNBC mouse model; details: in vivo
Method: as §5

ICK = ICK (Homo sapiens, UniProt Q9UPZ9); assay: Kinase inhibition profile; format: biochemical
OCI Ly10 model of DLBCL = assay: Western blot of treated cells; format: cell-based; details: 5 uM voruciclib, 50 nM venetoclax; 24 h
Method: (§3) Cell lines shown in Table 1, adherent or suspension, were treated in 6-well dishes or T10 flasks respectively, seeded at one million per ml density prior to treatment in total volumes of 3-10 ml. All agents used for in vitro cell treatments were formulated in water/DMSO to achieve required concentrations (as stated in respective figure labels/legends) with DMSO concentrations not exceeding 0.01%. Drug sources are indicated in table under ‘CIVO microinjection studies’. Cells were harvested at experimental time points: 2, 6, or 24 hours post treatment as indicated in respective figures, first by washing cells twice in ice-cold PBS in 15 ml falcon tubes, centrifugation at 1000 rpm for 5 mins followed by lysis of the respective cell pellets as described in section below. Note: Drug resistant NUDHL1 Dox 1000 nM and Toledo Dox 1000 nM cell lines were generated at Presage by culturing parental lines in media with stepwise increments in Doxorubicin concentration over several passages. […]
(§4) Protein lysates were prepared by adding ice-cold 1×RIPA Buffer (from 10×, Millipore) with 1×-3× Halt protease and phosphatase inhibitor cocktail (100×, Pierce) to cell pellets, followed by pulse sonication (˜3-5 secs) three times. […] Protein samples were quantified using Bradford assay (Biorad) at 1:10 or higher dilutions using appropriate blank controls with 1×RIPA. […]

RIVA cells = assay: CIVO microinjection, CC3 expression; parameters: species or system mice; details: mouse, in vivo
Method: as §1

Toledo cells = assay: CIVO microinjection, CC3 expression; parameters: species or system mice; details: mouse, in vivo
Method: as §1

U2932 model of DLBCL = assay: Western blot of treated cells; format: cell-based; details: increasing concentration of voruciclib, single agent
Method: as §3, §4

Chain of ICK (Q9UPZ9 whole entry): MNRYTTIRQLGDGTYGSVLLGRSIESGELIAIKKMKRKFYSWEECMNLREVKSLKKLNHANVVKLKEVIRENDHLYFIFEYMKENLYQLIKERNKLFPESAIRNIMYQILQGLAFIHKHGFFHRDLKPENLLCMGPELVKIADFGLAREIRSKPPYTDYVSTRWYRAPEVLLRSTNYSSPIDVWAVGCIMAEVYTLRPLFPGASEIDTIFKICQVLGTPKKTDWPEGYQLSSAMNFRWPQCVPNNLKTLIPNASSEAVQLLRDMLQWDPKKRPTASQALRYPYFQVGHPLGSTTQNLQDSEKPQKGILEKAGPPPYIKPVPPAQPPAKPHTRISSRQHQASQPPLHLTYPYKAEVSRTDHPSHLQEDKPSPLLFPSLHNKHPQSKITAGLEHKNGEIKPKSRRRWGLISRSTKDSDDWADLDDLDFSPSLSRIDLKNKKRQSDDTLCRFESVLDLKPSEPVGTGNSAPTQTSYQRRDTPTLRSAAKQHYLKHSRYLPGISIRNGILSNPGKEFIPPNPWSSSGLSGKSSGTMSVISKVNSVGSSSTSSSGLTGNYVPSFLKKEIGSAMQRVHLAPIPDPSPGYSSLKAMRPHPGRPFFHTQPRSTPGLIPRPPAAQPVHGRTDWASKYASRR
T1 sequence (Q00534 whole entry): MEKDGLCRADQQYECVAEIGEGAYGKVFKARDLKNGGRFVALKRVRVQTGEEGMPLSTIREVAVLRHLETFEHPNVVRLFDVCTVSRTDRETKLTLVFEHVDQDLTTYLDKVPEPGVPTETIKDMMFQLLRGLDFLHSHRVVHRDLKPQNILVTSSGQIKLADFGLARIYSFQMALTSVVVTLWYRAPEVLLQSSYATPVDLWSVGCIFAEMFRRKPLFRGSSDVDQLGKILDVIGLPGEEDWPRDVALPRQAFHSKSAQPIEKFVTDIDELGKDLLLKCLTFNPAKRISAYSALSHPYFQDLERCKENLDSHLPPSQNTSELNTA
T1 sequence (P24385 whole entry partner): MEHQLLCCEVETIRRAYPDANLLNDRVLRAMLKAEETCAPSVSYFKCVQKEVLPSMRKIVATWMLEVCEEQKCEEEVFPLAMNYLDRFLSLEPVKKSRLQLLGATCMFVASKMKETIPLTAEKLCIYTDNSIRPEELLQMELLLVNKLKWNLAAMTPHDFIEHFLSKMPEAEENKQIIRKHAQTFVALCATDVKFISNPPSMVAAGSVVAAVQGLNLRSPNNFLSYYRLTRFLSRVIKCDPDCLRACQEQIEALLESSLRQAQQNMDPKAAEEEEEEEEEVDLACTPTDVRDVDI
T3 sequence (P06493 whole entry): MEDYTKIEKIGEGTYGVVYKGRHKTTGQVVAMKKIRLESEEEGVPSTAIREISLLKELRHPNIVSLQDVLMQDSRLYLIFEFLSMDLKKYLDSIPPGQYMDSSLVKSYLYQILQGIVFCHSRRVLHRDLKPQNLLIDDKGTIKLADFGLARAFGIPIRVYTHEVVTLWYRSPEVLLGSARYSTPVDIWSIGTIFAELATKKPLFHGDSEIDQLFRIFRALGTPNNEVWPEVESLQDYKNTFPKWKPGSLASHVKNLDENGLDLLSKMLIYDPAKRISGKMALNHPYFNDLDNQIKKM
T3 sequence (P14635 whole entry partner): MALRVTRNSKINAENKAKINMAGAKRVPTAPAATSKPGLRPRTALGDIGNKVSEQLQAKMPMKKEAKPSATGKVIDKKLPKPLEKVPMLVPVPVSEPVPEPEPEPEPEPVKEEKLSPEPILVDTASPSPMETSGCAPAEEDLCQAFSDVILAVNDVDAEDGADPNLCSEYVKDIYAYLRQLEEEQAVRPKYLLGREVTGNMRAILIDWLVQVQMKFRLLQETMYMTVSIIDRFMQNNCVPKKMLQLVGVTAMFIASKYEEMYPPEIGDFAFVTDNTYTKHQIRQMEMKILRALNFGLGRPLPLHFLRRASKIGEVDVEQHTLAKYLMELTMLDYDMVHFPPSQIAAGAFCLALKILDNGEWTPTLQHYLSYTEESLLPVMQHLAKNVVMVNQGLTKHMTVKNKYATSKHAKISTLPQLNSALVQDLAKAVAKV
T2 sequence (P11802 whole entry): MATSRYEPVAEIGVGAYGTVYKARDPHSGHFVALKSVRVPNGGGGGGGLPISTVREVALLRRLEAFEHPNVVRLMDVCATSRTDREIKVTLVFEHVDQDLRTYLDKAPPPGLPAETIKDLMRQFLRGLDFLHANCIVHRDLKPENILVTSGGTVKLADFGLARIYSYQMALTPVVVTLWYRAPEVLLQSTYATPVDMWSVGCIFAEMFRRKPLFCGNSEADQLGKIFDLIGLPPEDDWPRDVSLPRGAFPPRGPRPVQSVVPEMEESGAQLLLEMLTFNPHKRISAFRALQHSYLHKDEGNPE
T2 sequence (P24385 whole entry partner): as the sequence (P24385 whole entry partner) above

potency (CDK6): single digit
potency (CDK4): single digit
potency (CDK1): single digit
inhibition of ICK (ICK): does not show potent inhibition
Compound: CN1CC[C@@H](c2c(O)cc(O)c3c(=O)cc(-c4ccc(C(F)(F)F)cc4Cl)oc23)[C@@H]1CO (relative stereo) [voruciclib, (+)-trans-2-(2-Chloro-4-trifluoromethylphenyl)-5,7-dihydroxy-8-(2-hydroxymethyl-1-methylpyrrolidin-3-yl)-chromen-4-one]
bortezomib-induced transcriptional induction of XBP1 (HCC1187 cells): decreased
normalized tumor volume (SKM1 AML xenografts): slightly lower
MCL1 expression in xenograft tumors [1]: suppressed
CC3 expression [2]: little to no increase
body weight of mice [3]: unaffected
apoptosis (cleaved PARP) (OCI Ly10 model of DLBCL): neither compound significantly induces apoptosis as a single agent
CC3 expression (RIVA cells): slight effect
CC3 expression (Toledo cells): slight effect
MCL-1 (U2932 model of DLBCL): suppresses
apoptosis (cPARP) (U2932 model of DLBCL): increases as the concentration of voruciclib increases
